In the test the test system is LTD4-induced bronchoconstriction. The test can be described thus: Antagonism of LTD4-induced bronchoconstriction in guinea pigs. Format: in vivo, guinea pig (male, Hartley strain). The conditions noted are these: for ED50 / inhibition in vivo at 1 mg/kg: Cavia porcellus; for inhibition in vivo at 1 mg/kg: read-out: percent inhibition at 1 mg/kg p.o., LTD4-induced bronchoconstriction (ID50 not determined). How it is done: Male guinea pigs (Hartley strain, Charles River) weighing 400-600 g were anesthetized with urethane (2 g/kg) intraperitoneally, and a polyethylene cannula was inserted into the jugular vein for intravenous drug administration. Tracheal pressure (cm of H2 O) was recorded from a Statham pressure transducer (P 32 AA). Propranolol was administered 5 minutes prior to challenge with LTD4. Two minutes later spontaneous breathing was arrested with succinylcholine chloride (1.2 mg/kg) administered intravenously, and the animals were ventilated with a Harvard (Model 680) small animal respirator set at 40 breaths/min and a 4.0 cc stroke volume. Control vehicle (DMSO) or test compound was administered through the cannula into the jugular vein 1 minute before the animals were challenged with a maximum constrictory dose of LTD4 ([…] I.V.) given intravenously. The change in tracheal pressure was averaged for control and drug-treated animals and percent inhibition was calculated. For determination of oral activity, animals were dosed with test compound or vehicle (PEG400) two hours prior to challenge with LTD4 ([…], i.v.).
The relative potency of test compounds administered by the intravenous and oral route was determined by administering increasing doses of test compound at a fixed pretreatment time. The median inhibitory dose (ID50 value) was determined by linear regression of log dose-responsecurves generated by at least 3 doses that caused statistically significant inhibition between 10 and 90%. The correlation coefficient for the regression line was always greater than 0.95. For determination of the time-course of inhibition for various compounds, the time between administration of compound and challenge with LTD4 was varied. Durations of action were defined as the time for inhibitory activity to decrease to 50%.

Where [1] appears, read: iv, 1 min, I.V., compound 1 minute before LTD4 challenge, read-out: ID50 I.V., LTD4-induced bronchoconstriction.
Where [2] appears, read: po, 2 h, p.o., 1 mg/kg, compound two hours prior to LTD4 challenge.
The mark [3] stands for this setting: po, 2 h, p.o., compound two hours prior to LTD4 challenge, read-out: ID50 p.o., LTD4-induced bronchoconstriction.
Where [4] appears, read: I.V., 1 mg/kg, compound 1 minute before LTD4 challenge.

Like-named read-outs stand apart in the source and are kept apart here.

Data on 13 molecules can be found in US5273986A, “Cycloalkylthiazoles” (Hoffmann-La Roche Inc., priority 1992, dated 1993).

For the molecule `Cc1ccc(NC(=O)Cc2ccccc2C(=O)O)cc1/C=C/c1nc(C(C)C)cs1` [Example 16g, (E)-2-[2-[4-Methyl-3-[2-[4-(1-methylethyl)-2-thiazolyl]ethenyl]phenylamino]-2-oxoethyl]benzoic acid], the ED50 under setting [1] was determined as 0.2 mg/kg. Besides, the inhibition in vivo at 1 mg/kg under setting [2] turned out to be 24 ± 8%.
As for `O=C(Cc1ccccc1C(=O)O)Nc1cccc(/C=C/c2nc(C3CCCCCCC3)cs2)c1` [Example 12d, (E)-2-[2-[3-[2-[4-(Cyclooctyl)-2-thiazolyl]ethenyl]phenylamino]-2-oxoethyl]benzoic acid], the ED50 under setting [1] turned out to be 0.15 mg/kg. The inhibition in vivo at 1 mg/kg under setting [2] came to 24 ± 4%.
For `O=C(Cc1ccccc1C(=O)O)Nc1cccc(/C=C/c2csc(C3CCC3)n2)c1` [Example 20h, (E)-2-[2-[3-[2-(2-Cyclobutyl-4-thiazolyl)ethenyl]phenylamino]-2-oxoethyl]benzoic acid], the ED50 under setting [1] worked out at 0.04 mg/kg. The inhibition in vivo at 1 mg/kg under setting [2] worked out at 48 ± 6%.
On to `O=C(Cc1ccc(F)cc1C(=O)O)Nc1cccc(/C=C/c2nc(C3CCC3)cs2)c1` [Example 27, (E)-5-fluoro-2-[2-[3-[2-[4-(cyclobutyl)-2-thiazolyl]ethenyl]phenylamino]-2-oxoethyl]benzoic acid], for which, under setting [1], the ED50 is 0.2 mg/kg.
On to `COc1ccc(CC(=O)Nc2cccc(/C=C/c3nc(C4CCC4)cs3)c2)c(C(=O)O)c1` [Example 26, (E)-5-Methoxy-2-[2-[3-[2-[4-(cyclobutyl)-2-thiazolyl]ethenyl]phenylamino]-2-oxoethyl]benzoic acid], for which the ED50 runs as follows: under setting [1], 0.03 mg/kg; under setting [3], 0.2 mg/kg.
As for `O=C(Cc1ccccc1C(=O)O)Nc1cccc(/C=C/c2nc(C(=O)O)cs2)c1` [Example 19], the “percent inhibition at 1 mg/kg, previous test” value (1 mg/kg, previous test (footnote ** to the I.V. value)) turned out to be 0 ± 0%. The “percent inhibition at 1 mg/kg I.V., LTD4-induced bronchoconstriction (ID50 not determined)” value (“percent inhibition … (ID50 not determined)” below) under setting [4] was determined as 12 ± 4%.
For `O=C(Cc1c(F)cccc1C(=O)O)Nc1cccc(/C=C/c2nc(C3CCC3)cs2)c1` [Example 25, (E)-3-fluoro-2-[2-[3-[2-[4-(cyclobutyl)-2-thiazolyl]ethenyl]phenylamino]-2-oxoethyl]benzoic acid], the ED50 under setting [1] came out at 0.03 mg/kg. Moreover, the inhibition in vivo at 1 mg/kg under setting [2] was 36 ± 6%.
On to `O=C(Cc1ccc([N+](=O)[O-])cc1C(=O)O)Nc1cccc(/C=C/c2nc(C3CCC3)cs2)c1` [Example 23, (E)-5-Nitro-2-[2-[3-[2-[4-(cyclobutyl)-2-thiazolyl]ethenyl]phenylamino]-2-oxoethyl]benzoic acid], for which, under setting [4], the “percent inhibition … (ID50 not determined)” value is recorded as 36 ± 6%.
On to `O=C(Cc1ccccc1C(=O)O)Nc1cccc(/C=C/c2nc(C3CCCCC3)cs2)c1` [Example 10, (E)-2-[2-[3-[2-[4-(Cyclohexyl)-2-thiazolyl]ethenyl]phenylamino]-2-oxoethyl]benzoic acid], for which the ED50 by setting is: under setting [1], 0.02 mg/kg; under setting [3], 0.43 mg/kg.
`O=C(Cc1ccc(C(=O)O)cc1)Nc1cccc(/C=C/c2nc(C3CCC3)cs2)c1` [Example 8b, (E)-4-[2-[3-[2-[4-(Cyclobutyl)-2-thiazolyl]ethenyl]phenylamino]-2-oxoethyl]benzoic acid]: the “percent inhibition … (ID50 not determined)” value under setting [4] was 50 ± 6%.
In the case of `O=C(Cc1ccccc1C(=O)O)Nc1cccc(/C=C/c2nc(C3CCCC3)cs2)c1` [Example 9, (E)-2-[2-[3-[2-[4-(Cyclopentyl)-2-thiazolyl]ethenyl]phenylamino]-2-oxoethyl]benzoic acid], the ED50 was 0.005 mg/kg under setting [1] and 0.4 mg/kg under setting [3].
Take `O=C(CCc1ccccc1C(=O)O)Nc1cccc(/C=C/c2nc(C3CCC3)cs2)c1` [Example 21b, (E)-2-[3-[3-[2-[4-(Cyclobutyl)-2-thiazolyl]ethenyl]phenylamino]-3-oxopropyl]benzoic acid]: the ED50 runs as follows: under setting [1], 0.02 mg/kg; under setting [3], 8.2 mg/kg.
For the molecule `COC(=O)c1ccccc1CC(=O)Nc1cccc(/C=C/c2nc(C3CCC3)cs2)c1` [Example 4, (E)-2-[2-[3-[2-[4-(Cyclobutyl)-2-thiazolyl]ethenyl]phenylamino]-2-oxoethyl]benzoic Acid Methyl Ester], the ED50 under setting [1] was 0.3 mg/kg and the ED50 under setting [3] was found to be 0.3 mg/kg.
